Measurements reported in patent US20210038730A1, “PEPTIDE NANOFIBERS” (UNIVERSITY OF PORTSMOUTH HIGHER EDUCATION CORPORATION, priority 2018, published 2021).
Where “and” joins values, the source holds several entries; their conditions need not be identical. Identical values can stand only once. Like-named read-outs stand apart in the source and are kept apart here.

Legend:
[1] = target: T1, GnRH-R expressed on glioblastoma cells (Homo sapiens, UniProt P30968); test: Receptor binding by single molecule force spectroscopy; settings: for koff: read-out: Dissociation Rate (Koff)
T1 construct: GnRH peptides to the GnRH-R expressed on glioblastoma cells; endogenous in cells; host or cells: U-87 MG, UP-007, UP-029, SEBTA-023 glioblastoma cells (living)
T1 sequence (P30968 1-328): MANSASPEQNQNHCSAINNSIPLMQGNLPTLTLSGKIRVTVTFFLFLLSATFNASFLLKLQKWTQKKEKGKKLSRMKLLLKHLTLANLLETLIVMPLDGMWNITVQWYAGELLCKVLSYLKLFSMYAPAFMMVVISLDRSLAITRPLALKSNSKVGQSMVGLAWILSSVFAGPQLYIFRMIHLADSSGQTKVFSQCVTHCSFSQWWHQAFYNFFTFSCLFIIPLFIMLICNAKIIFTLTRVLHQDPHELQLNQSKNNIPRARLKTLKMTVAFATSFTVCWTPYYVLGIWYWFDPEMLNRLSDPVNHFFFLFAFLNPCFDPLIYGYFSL
Protocol: The binding of the GnRH analogues to GnRH-R was assessed using single molecule force spectroscopy (SMFS) and Topography and Recognition (TREC) imaging based on AFM. AFM tips were functionalised with Glu-GnRH, goserelin acetate and […] as a monomer and nanofibers using a previously described method ^9, 10. Silicon nitride (6-20 pN/nm spring constant, Bruker, Mass., USA) and magnetically coated […] tips (Keysight, Calif., USA) were used for SMFS and TREC studies, respectively. […] Subsequently, acetal groups were converted into aldehyde groups by immersing the tips in a 1% (w/v) citric acid solution for 10 minutes. […] Following an incubation of 2 hours, the free aldehyde groups were inactivated by ethanolamine for 10 minutes. AFM tips were washed with PBS three times and stored at 4° C. […] Loading rates were calculated by multiplying the pulling velocity (v) with the effective spring constant (keff). Spring constants were determined by the thermal-noise method. The force-distance curves were acquired using PicoView 1.12 (Agilent Technologies, Inc., California, USA) and analysed in Matlab 8.1 software (MathWorks, Massachusetts, USA). […] Amplitude-distance curves were collected on a glass coverslip to adjust the free oscillation amplitude, and to determine the optimal amplitude reduction value for driving the feedback loop during the imaging. Free amplitude of cantilever oscillation was 30 nm and the excitation frequency was set to 9 kHz.

in vivo = settings: male, BALB/c, mouse, iv, 35 mg/kg
Protocol: At 5 and 60 minutes, mice were killed and the blood and brain were harvested. Blood samples (0.5-0.7 mL per mouse) were collected into evacuated, sterile, spray coated with tripotassium ethylenediamine tetraacetic acid (3.6 mg), medical grade PET tubes. […] Brain was weighted and homogenised with ice-cold PBS (1×, 7.4) using a 3 mL glass homogeniser. Plasma (100 μL) and brain homogenate (˜800 μL) were extracted with equal volumes of ice-cold acetonitrile three times and samples were dried using a centrifugal concentrator (SPD1010 SpeedVac System, ThermoSavant, Renfrewshire, United Kingdom) under vacuum over 2 hours and 4 hours respectively. Samples were orbitally agitated using a SciQuip Microplate Shaker attached to a tube adapter for 1.5-2 mL tubes (10 mm) for 10 minutes prior being centrifuged at 8,000 rpm for 5 minutes. Supernatants were pipetted in 0.2 mL amber vials and was quantified by reverse phase-HPLC. Analysis was conducted on Onyx Monolithic C18 column (4.6 mm×10+100 mm, 5 μm pore size) with a gradient method (Table 13) using an Agilent 1200 Series HPLC system (Agilent Technologies, Cheadle, UK). […] Injection volume was 40 μL, and the detection was performed at 220 nm and 280 nm.

hCMEC/D3 cells = test: Cytotoxicity (MTT) in blood-brain barrier endothelial cells; type: cell-based, human; settings: 3.5-140 μM, 4 and 24 hours
Protocol: Human brain microvessel endothelial cells (hCMEC/D3) and cerebral astrocytes (SC-1800) were maintained in a humidified atmosphere of 5% CO2, and the medium was refreshed every 2-3 days. hCMEC/D3 cells were cultured in endothelial basal medium-2 (EBM-2) supplemented with the EGM-2 Bullet Kit and 2% (v/v) human serum. SC-1800 were cultured in astrocytes basal medium (ABM) supplemented with AGM Bullet Kit and 3% (v/v) human serum. […] Subsequently, complete growth medium (4 mL) was added and cells were centrifuged using a C-28A centrifuge (Boeco, Hamburg, Germany) at 1,000 rpm for 5 minutes. Supernatant was discarded, and pellet was re-suspended in 1 mL of medium. The cell number was counted using Trypan Blue Exclusion Assay in the Countess II Automated Cell Counter (Thermo Scientific, Paisley, UK). hCMEC/D3 and SC-1800 cells were seeded at 20,000 cells/cm^2 in complete medium and allowed to attach overnight. […] Cell metabolic activity was measured after 4 and 24 hours using (3-(4,5)-dimethylthiazol-2-yl)-2,5-diphenyltetrazolium bromide ([…]) assay. […] Subsequently, DMSO (100 μL) was added to dissolve the formazan crystals and absorbance was measured at 570 and 690 nm. Metabolic activity was calculated by subtracting the absorbance values at 690 nm to 570 nm to remove background, and dividing the values by the control to express as a percentage (%) of the control using the equation below. […]

[2] = Enzymatic stability in U-87 MG cell homogenates; settings: analyte in brackets of label
Protocol: Fresh blood, obtained from adult male Wistar rats, was collected in sterile the 170 I.U. lithium heparin-coated tubes (Vacutainer, BD Bioscience, UK). Blood was centrifuged immediately at 2,000 g for 15 minutes (4° C.) and supernatant was collected and diluted to 50% (v/v) with PBS. Livers and brains were obtained from adult male Wistar rats, and the tissues were blotted to dryness, weighed, sliced into pieces, and homogenised with ice-cold PBS (in 2 mL of buffer g^−1 of tissue) using the glass homogeniser. Then, tissue homogenates were centrifuged at 4,300 g for 1 hour (4° C.) and the supernatants collected. Glioblastoma cell homogenates were prepared using U-87 MG cells. Cells were cultured in Eagle's Minimum Essential Medium (EMEM) supplemented with 10% (v/v) heat-inactivated fetal bovine serum (FBS), 1% (v/v) of non-essential amino acids (NEAA) and 1 mM of sodium pyruvate in T75 flasks with a surface area of 75 cm^2 and maintained in a humidified atmosphere of 5% CO2 at 37° C. Breast cancer cell homogenates were prepared using MDA-MB-231 cells. Cells were cultured in Dulbecco's Modified Eagle Medium (DMEM) supplemented with high levels of glucose (4.5 g/L), 10% (v/v) heat-inactivated fetal bovine serum (FBS), 1% (v/v) of non-essential amino acids (NEAA) and penicillin and streptomycin (500 units/mL) in T75 flasks with a surface area of 75 cm^2 and maintained in a humidified atmosphere of 5% CO2 at 37° C. Media was changed for both cell lines every 3 to 4 days. After reaching confluence, cells were washed twice with Hank's Balanced Salt Solution (HBSS) and incubated with ˜2 mL of TrypLE Enzyme at 37° C. for ˜3 minutes. Then, complete media were added, and cells were centrifuged at 1,000 rpm for 5 minutes in C-28A centrifuge (Boeco, Germany). […] Total protein concentration in the homogenates was determined using the Bradford assay with bovine serum albumin as a standard. […] Samples were vortexed for 15 minutes, centrifuged for 15 minutes at 12,000 rpm, and the supernatants were collected and analysed by RP-HPLC.

CCCCCCCCCCCCCCCC(=O)Oc1ccc(C[C@H](NC(=O)[C@H](CO)NC(=O)[C@H](Cc2c[nH]c3ccccc23)NC(=O)[C@H](Cc2c[nH]cn2)NC(=O)[C@@H](N)CCC(=O)O)C(=O)NCC(=O)N[C@@H](CC(C)C)C(=O)N[C@@H](CCCNC(=N)N)C(=O)N2CCC[C@H]2C(=O)NCC(N)=O)cc1 [TPGnRH, Tyrosine (O-Palmitoyl)-Glu-GnRH]
Binding Force ([1]; SEBTA-023): 41.4 ± 3.85 pN | Binding Probability ([1]; SEBTA-023): 17.04±3.1% | koff ([1]; SEBTA-023): 2.49 ± 0.12 s⁻¹ | Binding Force ([1]; U-87 MG): 30.00 ± 5.57 pN | Binding Probability ([1]; U-87 MG): 13.2±0.9% and 13.2 ± 1.64% | koff ([1]; U-87 MG): 0.89 ± 0.1 s⁻¹ | Binding Force ([1]; UP-007): 50.80 ± 2.88 pN | Binding Probability ([1]; UP-007): 20.5±5.8% | koff ([1]; UP-007): 1.23 ± 0.13 s⁻¹ | Binding Force ([1]; UP-029): 46.4 ± 9.45 pN | Binding Probability ([1]; UP-029): 9.5±2.5% and 9.51 ± 2.53% | koff ([1]; UP-029): 2.03 ± 4.14 s⁻¹ | tissue level at time at 5 min (in vivo; brain): 3080 ± 1010 ng/g | tissue level at time at 1 h (in vivo; brain): 3470 ± 80 ng/g | level at 5 min (in vivo; plasma): 545 ± 342 µg/mL | level at 1 h (in vivo; plasma): 45.6 ± 10.1 µg/mL | cytotoxicity (metabolic activity, MTT) (hCMEC/D3 cells): no cytotoxicity | k [2]: 0.1781 min⁻¹
